Source: patent US20190309044A1, “POLYPEPTIDES AND USES THEREOF AS A DRUG FOR TREATMENT OF AUTOIMMUNE DISORDERS” (Compugen Ltd., priority 2017, published 2019)
“And” between values parts separate entries of the source, which are not always exact repeats. Identical values can stand only once. “Also recorded” adds a separate entry of the source.

Key:
[1] = tested on: healthy human skin transplanted onto beige-SCID mice; test: Humanized psoriasis model, human skin xenografts on beige-SCID mice; type: in vivo, mouse; conditions: for proliferation index (% Ki-67 positive cells): vs vehicle; for Healthy Skin, number of grafts / Psoriasiform Skin, number of affected grafts / Partial Psoriasiform With Tendency Towards Healthy skin, number of grafts: histological evaluation, day 28; for epidermal thickness: vs vehicle treated group
Source text: In this model, psoriasis is induced in xenotransplants of healthy human skin transplanted onto beige severe combined immunodeficiency (SCID) mice followed by intradermal (i.d.) injection of IL-2 enriched Peripheral Blood Mononuclear Cells (PBMCs) isolated from blood of psoriasis patients (Nickoloff, 1995; Wrone-Smith, 1996 Gilhar et al., 2002, 2006, 2011). The activity of these compounds was compared to that of Enbrel, a TNF inhibitor which is an approved biological drug for treatment of psoriasis. As a control for model robustness, we used dexamethasone, a steroid with suppressive effects on inflammatory cytokines and chemokines such as TNF-alpha and interferon-gamma which cause severe psoriasis. All treatments were administered intradermally, except for dexamethasone which was given topically.
2.2. Study Protocol A) Healthy human skin pieces with a width of 0.4 mm and surface area of 1.5×1.5 cm were provided from residual skin of routine plastic surgery procedures from the Plastic Surgery Department of the Rambam Medical Center, Israel. In addition, 20 mL blood samples were taken from psoriatic patients. B) Seventy (70) beige-severe combined immunodeficient mice (SCID) (weight ˜20-25 g) were included in this study. Normal healthy human donor skin was transplanted onto the beige-SCID mice as previously described (Nickoloff et al., 1995; Wrone-Smith, 1996; Gilhar et al., 2002, 2006, 2011; Kalish et al., 2009) and the mice were divided into 7 groups. C) Peripheral Blood Mononuclear Cells (PBMCs) isolated from psoriatic patients' blood were cultured in the presence of IL-2 [Prospec, 100 U/mL of RPMI 1640 media, 10% human AB serum (Sigma, St. Louis, Mo.), 1% glutamine, 1% antibiotics (media components; Biological Industries, Kibbutz Beit Haemeck, Israel)] for 14 days, as previously described (Gilhar et al, 2002). D) Four weeks following engraftment, each mouse was injected intra-dermally (i.d.) into the grafted skin lesion, with 1×10^7 activated allogeneic enriched PBMCs from psoriatic patients (FIG. 20). Cells from different psoriasis patients were equally distributed between treatment groups so that each patient is represented in each treatment group. E) On the day of PBMCs injection into the skin grafts, mice were divided randomly into treatment groups (n=9-10 mice per group) and administration of all drugs started (FIG. 20). All tested compounds including the vehicle were given intradermally (intralesional), three times a week, except for dexamethasone which was given topically for 14 consecutive days (Table 3).
F) Twenty eight days after starting the injections and treatment, skin was harvested (FIG. 20). Grafts were analyzed for the following psoriatic parameters by histology: epidermal thickening (acanthosis), suprapapillary epidermal thinning (papillomatosis), hyperkeratosis, parakeratosis, orthokeratosis, agranulosis-hypogranulosis, appearance of neutrophils in the upper spinous layer or in the corneal cell layer—Munro microabscess, regular elongation of rete ridges, angiogenesis, edema and dilated tortuous blood vessels in the dermal papilla and mononuclear cell infiltrate in the papillary dermis. Epidermal thickness was measured as detailed below, and HLA-DR, ICAM-1, Ki-67 and immune infiltrates (anti-CD3 stain) were evaluated by immunohistochemistry (IHC).
The entire skin graft was excised and placed in 10% formal saline overnight. Then, the specimens were place in 70% ethanol and were embedded according to the standard H&E protocol. Histological assessment of the skin grafts was performed by light microscopy and evaluated by two blinded observers [the second observer evaluated random slides (about 25% of all slides) to compare the data obtained by the first observer. […] Epidermal thickness was determined with an ocular micrometer at a minimum of 50 points along the epidermis selected to represent points of maximal and minimal thickness.
Representative grafts were allocated for IHC analysis. […]

[2] = tested on: synovial-like T-cell - macrophage co-cultures; test: Synovial-like T-cell - macrophage co-cultures from RA patients not responding to TNF blockers, TNFa secretion; type: cell-based, human
Source text: The therapeutic potential of C1ORF32-ECD-FC (SEQ ID #43) for treating RA was studied in co-cultures of activated T cells and macrophages that were modified to mimic the deleterious interaction of these cells in RA synovium. This interaction drives the secretion of pro-inflammatory cytokines that play a major role in the pathology of RA, leading to progressive joint inflammation and to joint destruction. Thus, these co-cultures provide a translational tool to evaluate the effect of potential drugs for treatment of RA (Wenink et al., Ann Rheum Dis 2012; 71:1 80-83).
Purified T cells and myeloid cells from blood of RA patients that fail to respond to treatment with TNF blockers were activated for 6 days with TNFa, IL-6 and IL-15 and co-cultures with Monocytes derived macrophages that were generated by activation of CD14+ monocytes with M-CSF for 6 days.
The amounts were administered as follows: FIG. 33: 30microg/ml of each protein; FIG. 34: 3, 10, 30microg/ml of each protein as shown.

[3] = tested on: TcK and macrophages co-cultures; test: TcK:macrophage co-culture cytokine secretion, healthy volunteers; type: cell-based, human; conditions: buffy coats of healthy volunteers
Method: • Purified CD4+ cells (2×10^6 cells/ml) are activated for 6 days in complete medium containing IL-15 (100 ng/ml), IL-6 (100 ng/ml) and TNFa (25 ng/ml).
TcKs are added to macrophage culture following removal of existing culture media at a ratio of 4:1 (5×10^4 cells/well/CD4^+ T cells plus 2×10^5 cells/well CD14^+ Macrophages). C1ORF32 ECD-Fc (SEQ ID NO:43) or Control IgG are added at 1, 3, 10, 30 μg/ml. For additional controls co-cultures are added with vehicle or with medium only (Wennink et al., 2012).
After 24 hrs of culture, cytokines (IL-10, IFN-α, IL-6, IL-12, RANTES, IL-13, IL-15, IL-17, MIP-1α, GM-CSF, IFNγ, TNFα, IL-1RA, IL-7, IL-1B, eotaxin, IL-2 IL-4 and IL-2R) are analyzed using ELISA and/or Luminex.
Co-culture of TcK with autologeuos ex-vivo differentiated macrophages mimics one of the crucial pathways mediating synovial macrophage activation in RA thus serving as a translational tool for evaluating the therapeutic potential of drug candidates. Therefore the effect of C1ORF32 ECD-Fc (SEQ ID NO:43) was tested on the secretion of a range of pro-inflammatory and anti-inflammatory cytokines in such co-cultures. Two studies were carried out, one in which buffy coats from healthy volunteers was used and another study in which the responses of RA patients blood cells responses were compared to that of healthy voluntiers in which blood was used rather than buffy coats.

MS patients' PBMCs = test: Proliferation and cytokine secretion of PBMCs from MS patients; type: cell-based, human
Method: PBMCs were taken from eight MS patients with diagnosed relapsing-remitting disease who have experienced a relapse 1-2 days prior to blood drawing.
PBMCs were plated in a flat-bottom 96-well plate at 1e6 cells/well. The cells were cultured in the presence of anti-CD3 (0.5 ug/ml), MS-specific peptide MBP85-96 (10 ug/ml), or tetanus toxoid peptide TT830-843 (10 ug/ml). C1ORF32 ECD-Fc (SEQ ID NO: 43) or Control Ig were added to the cuture at the indicated concentrations. Two replicate plates were set to study for the effect of C1ORF32 ECD-Fc (SEQ ID NO: 43) on proliferation and on pro-inflammatory and anti-inflammatory cytokines secretion. To test for proliferation, the cultures were pulsed on day +1 of culture with 1uCi of tritiated thymidine and then harvested 3 days later on day +4 of culture. For cytokine analysis, super natantes from a replicate cultures were collected on day +4 of culture and tested using Millipore multiplex assay.

male DBA-1 mice = test: Established collagen induced arthritis (CIA), macroscopic and histological scores; type: in vivo, mouse; conditions: Enbrel 5 mg/kg
Method: Bovine type II collagen (CII) (RUNMC in house production, batch 03-04-08) at a concentration of 2 mg/ml in acetic acid 0.05M was emulsified in equal volumes of Freund's complete adjuvant (2 mg/ml of Mycobacterium tuberculosis strain H37Ra; Difco, Detroit, Mich.).
On day 0, 10-12 week old male DBA-1 mice (Janvier Elevage, France) (n=95) were immunized i.d. at the base of the tail with 100 μg of bovine CII. On day 21, mice received an intraperitoneal booster injection of 50 μg of CII dissolved in phosphate buffered saline (PBS), and the onset of arthritis occurred a few days after this booster.
Joint inflammation in each paw was scored visually, using a scale of 0-2 per paw with a maximal score of 8 per animal: 0=non inflamed, 1=mild inflammation, 1.5=marked inflammation, and 2=severe inflammation. Scoring was performed three times a week.
Treatment was started in established CIA early after onset of disease (i.e. therapeutic regimen), when the macroscopic scores per animal were between 0.25 and 1.25 (on a scale of 0-8). […] Histology was scored for inflammation and destruction on an arbitrary scale of 0-3, for five different parameters: […]
Joints were fixed for at least 4 days in 4% formaldehyde, decalcified in 5% formic acid, and subsequently dehydrated and embedded in paraffin. […] The severity of inflammation in the joints was scored on a scale of 0-3 (0=no cells, 1=mild cellularity, 2=moderate cellularity, and 3=maximal cellularity). […] Depletion of PG was determined using an arbitrary scale of 0-3, ranging from normal, fully stained cartilage to destained cartilage, fully depleted of PGs. Chondrocyte death was scored on a scale of 0-3 ranging from no loss of chondrocyte nuclei to complete empty cartilage surface. The degree of cartilage surface erosion was scored on a scale of 0-3, ranging from no damage to complete loss of articular cartilage. […] Histopathological changes in the joint were scored on three semiserial sections of the joint spaced 70 μm apart. […]

psoriasis patients = conditions: at week 12; cited from earlier work

Compound: C1ORF32 ECD-Fc (SEQ ID NO: 43): human-human fusion protein: human C1ORF32 ECD fused to human immunoglobulin Fc (SEQ ID NO:43)
- expression of HLA-DR, ICAM-1 and Ki-67 ([1]; IHC): decreased expression
- proliferation index (% Ki-67 positive cells) ([1]; IHC): trend towards decrease
- proliferation index (% Ki-67 positive cells) ([1]; IHC, listed as C1ORF ECD-Fc (SEQ ID NO:43)): most pronounced reduction
- Healthy Skin, number of grafts [1]: 5/9
- Psoriasiform Skin, number of affected grafts [1]: 4/9
- cases in which disease symptoms were eliminated ([1]; summary in detailed description): about a third of the cases
- epidermal thickness ([1]; listed as C1ORF ECD-Fc (SEQ ID NO:43)): significant reduction
- TNFa secretion ([2]; Example 20, 30 microg/ml): decreased the secretion of TNFα
- TNFa secretion in one of the donors ([2]; Example 20, 30 microg/ml): inhibited TNFα secretion
- TNFa secretion ([2]; Example 21, 3, 10, 30 microg/ml): decreased the secretion of TNFa; also recorded: inhibition of TNFa secretion in a dose dependent manner
- secretion of TNFa, RANTES, MIP-1a, GM-CSF and IL-5 [3]: inhibited
- proliferation, secretion of IFNg, IL-17 and TNFa (MS patients' PBMCs; absence of activation): no effect
- IL-10, IL-4, TGFb and IL-6 (MS patients' PBMCs; absence of activation, in some of the donors): elevation
- IL-4, IL-10, TGFb and IL-6 secretion (MS patients' PBMCs; activated ex-vivo with MBP85-96): increase

Compound: Enbrel
- bone erosions, histology (male DBA-1 mice): significant reduction
- proliferation index (% Ki-67 positive cells) ([1]; IHC): trend of decrease
- Healthy Skin, number of grafts [1]: 3/9
- Psoriasiform Skin, number of affected grafts [1]: 6/9
- epidermal thickness [1]: no substantial effect; also recorded: no significant reduction
- psoriasis patients achieving PASI 75 (psoriasis patients): Forty nine

Compound: C[C@@H]1C[C@H]2[C@@H]3CCC4=CC(=O)C=C[C@]4(C)[C@@]3(F)[C@@H](O)C[C@]2(C)[C@@]1(O)C(=O)CO [dexamethasone]
- Healthy Skin, number of grafts [1]: 7/10
- Partial Psoriasiform With Tendency Towards Healthy skin, number of grafts [1]: 1
- Psoriasiform Skin, number of affected grafts [1]: 2 and 2/10
- Partial Psoriasiform With Tendency Towards Healthy skin, number of grafts ([1]; listed as Dexa): 1/10
- Psoriasiform Skin, number of affected grafts ([1]; listed as Dexa): 2/10
- grafts with moderate lymphocytic infiltration ([1]; mouse, in vivo): 1/10
